Tested on: hepatocytes
Assay: RNA-seq of hepatocytes treated with Phase III failure compounds
Settings: for significant modulation of expression of disease genes: q≤0.05, genes in the value or listed in the block
Procedure: RNA-seq was performed to determine the effects of the compounds on hepatocytes.
Significance was determined by the criteria of FPKM≥0.5, a log 2(fold-change)≥1, and a […].

Cn1cc(C2=C(c3cn(C4CCN(Cc5ccccn5)CC4)c4ccccc34)C(=O)NC2=O)c2ccccc21 [Enzastaurin]
RNA-seq results, CYP2B6 expression: 0.42 | RNA-seq results, CYP2C19 expression: 0.47 | RNA-seq results, CYP2D6 expression: −0.28 | RNA-seq results, CYP3A4 expression: 0.22 | RNA-seq results, CYP7B1 expression: 0.06 | RNA-seq results, CYP39A1 expression: −1.39 | RNA-seq results: CYP2B6 expression: 0.34 | RNA-seq results: CYP2C19 expression: 1.62 | RNA-seq results: CYP2D6 expression: −0.62 | RNA-seq results: CYP3A4 expression: 0.01 | RNA-seq results: CYP7B1 expression: 0.26 | RNA-seq results: CYP39A1 expression: −0.08 | significant modulation of expression of disease genes (RNA-seq, hepatocytes): significantly (q≤0.05) modulate expression | effect on disease gene expression (RNA-seq, hepatocytes): effect on expression of too many disease genes | RNA-seq results: A1BG expression (gene A1BG, hepatocytes): 0.13 | RNA-seq results: AGTR1 expression (gene AGTR1, hepatocytes): −0.76 | RNA-seq results: AGXT expression (gene AGXT, hepatocytes): −0.27 | RNA-seq results: AHI1 expression (gene AHI1, hepatocytes): 0.25 | RNA-seq results: AMPD3 expression (gene AMPD3, hepatocytes): −0.35 | RNA-seq results: AMT expression (gene AMT, hepatocytes): −0.42 | RNA-seq results: ANGPTL3 expression (gene ANGPTL3, hepatocytes): −2.31 | RNA-seq results: ANKS4B expression (gene ANKS4B, hepatocytes): −0.71 | RNA-seq results: ANKS6 expression (gene ANKS6, hepatocytes): 0.10 | RNA-seq results: ANPEP expression (gene ANPEP, hepatocytes): −0.52 | RNA-seq results: AOC2 expression (gene AOC2, hepatocytes): 0.11 | RNA-seq results: APOA2 expression (gene APOA2, hepatocytes): −0.48 | RNA-seq results: APOA5 expression (gene APOA5, hepatocytes): −0.04 | RNA-seq results: APOB expression (gene APOB, hepatocytes): −0.19 | RNA-seq results: COG5 expression (gene COG5, hepatocytes): 0.35 | RNA-seq results: COG6 expression (gene COG6, hepatocytes): 0.23 | RNA-seq results: COL1A1 expression (gene COL1A1, hepatocytes): 0.34 | RNA-seq results: COX6A1 expression (gene COX6A1, hepatocytes): −1.30 | RNA-seq results: CP expression (gene CP, hepatocytes): 0.80 | RNA-seq results: CPS1 expression (gene CPS1, hepatocytes): 0.69 | RNA-seq results: CPT1A expression (gene CPT1A, hepatocytes): −0.10 | RNA-seq results: CPT2 expression (gene CPT2, hepatocytes): −0.15 | RNA-seq results: CROT expression (gene CROT, hepatocytes): −0.21 | RNA-seq results: CSPP1 expression (gene CSPP1, hepatocytes): −0.22 | RNA-seq results: CTC1 expression (gene CTC1, hepatocytes): 0.46 | RNA-seq results: CTDSP2 expression (gene CTDSP2, hepatocytes): 0.44 | RNA-seq results: CTH expression (gene CTH, hepatocytes): −0.17 | RNA-seq results: CTNS expression (gene CTNS, hepatocytes): 0.16 | RNA-seq results: CTSF expression (gene CTSF, hepatocytes): −0.63 | RNA-seq results: CTSK expression (gene CTSK, hepatocytes): 0.47 | RNA-seq results: CYB5A expression (gene CYB5A, hepatocytes): −0.56 | RNA-seq results: CYB5R3 expression (gene CYB5R3, hepatocytes): 0.02 | RNA-seq results: CYP27A1 expression (gene CYP27A1, hepatocytes): −0.43 | RNA-seq results: DAO expression (gene DAO, hepatocytes): −0.01 | RNA-seq results: DBT expression (gene DBT, hepatocytes): 0.28 | RNA-seq results: DCDC2 expression (gene DCDC2, hepatocytes): 0.20 | RNA-seq results: DCXR expression (gene DCXR, hepatocytes): −1.16 | RNA-seq results: FABP1 expression (gene FABP1, hepatocytes): −0.93 | RNA-seq results: FADD expression (gene FADD, hepatocytes): −0.53 | RNA-seq results: FAM111A expression (gene FAM111A, hepatocytes): 0.49 | RNA-seq results: FAM111B expression (gene FAM111B, hepatocytes): 0.47 | RNA-seq results: FAN1 expression (gene FAN1, hepatocytes): 0.43 | RNA-seq results: FARS2 expression (gene FARS2, hepatocytes): −0.55 | RNA-seq results: FASLG expression (gene FASLG, hepatocytes): 0.35 | RNA-seq results: FGA expression (gene FGA, hepatocytes): −0.10 | RNA-seq results: FGD1 expression (gene FGD1, hepatocytes): 0.29 | RNA-seq results: FGFR2 expression (gene FGFR2, hepatocytes): 0.75 | RNA-seq results: FIG4 expression (gene FIG4, hepatocytes): 0.08 | RNA-seq results: FIS1 expression (gene FIS1, hepatocytes): −1.07 | RNA-seq results: FTCD expression (gene FTCD, hepatocytes): −0.35 | RNA-seq results: FTH1 expression (gene FTH1, hepatocytes): −0.84 | RNA-seq results: FUCA1 expression (gene FUCA1, hepatocytes): −0.37 | RNA-seq results: FXN expression (gene FXN, hepatocytes): −0.10 | RNA-seq results: G6PC3 expression (gene G6PC3, hepatocytes): −0.60 | RNA-seq results: G6PC expression (gene G6PC, hepatocytes): 0.69 | RNA-seq results: G6PD expression (gene G6PD, hepatocytes): −0.23 | RNA-seq results: GALK1 expression (gene GALK1, hepatocytes): −0.94 | RNA-seq results: GALK2 expression (gene GALK2, hepatocytes): −0.51 | RNA-seq results: GATA6 expression (gene GATA6, hepatocytes): −0.26 | RNA-seq results: GATM expression (gene GATM, hepatocytes): 0.12 | RNA-seq results: GBA expression (gene GBA, hepatocytes): 0.04 | RNA-seq results: GBE1 expression (gene GBE1, hepatocytes): −0.07 | RNA-seq results: GCH1 expression (gene GCH1, hepatocytes): −0.12 | RNA-seq results: GCKR expression (gene GCKR, hepatocytes): 0.17 | RNA-seq results: GCLC expression (gene GCLC, hepatocytes): 0.11 | RNA-seq results: GGCX expression (gene GGCX, hepatocytes): 0.17 | RNA-seq results: GHR expression (gene GHR, hepatocytes): 0.73 | RNA-seq results: GJB2 expression (gene GJB2, hepatocytes): −0.07 | RNA-seq results: GOSH expression (gene GOSH, hepatocytes): −1.35 | RNA-seq results: RRM2B (gene RRM2B, hepatocytes): −0.08 | RNA-seq results: RSAD1 (gene RSAD1, hepatocytes): 0.26 | RNA-seq results: SAMHD1 (gene SAMHD1, hepatocytes): −0.34 | RNA-seq results: SC5D (gene SC5D, hepatocytes): 0.23 | RNA-seq results: SCARB1 (gene SCARB1, hepatocytes): −0.02 | RNA-seq results: SCN9A (gene SCN9A, hepatocytes): −1.60 | RNA-seq results: SDCCAG8 (gene SDCCAG8, hepatocytes): 0.08 | RNA-seq results: SEPN1 (gene SEPN1, hepatocytes): −0.51 | RNA-seq results: SERAC1 (gene SERAC1, hepatocytes): −0.28 | RNA-seq results: SERPINA1 (gene SERPINA1, hepatocytes): 0.21 | RNA-seq results: SERPING1 (gene SERPING1, hepatocytes): 0.06 | RNA-seq results: SERPINI1 (gene SERPINI1, hepatocytes): −0.50 | RNA-seq results: SETBP1 (gene SETBP1, hepatocytes): 0.08 | RNA-seq results: SFXN4 (gene SFXN4, hepatocytes): 0.11 | RNA-seq results: SLC10A1 (gene SLC10A1, hepatocytes): −0.60 | RNA-seq results: SLC10A3 (gene SLC10A3, hepatocytes): 0.28 | RNA-seq results: SLC10A5 (gene SLC10A5, hepatocytes): −0.77 | RNA-seq results: SLC10A7 (gene SLC10A7, hepatocytes): −0.46 | RNA-seq results: SLC11A2 (gene SLC11A2, hepatocytes): 0.16 | RNA-seq results: SLC19A2 (gene SLC19A2, hepatocytes): 0.28 | RNA-seq results: SLC19A3 (gene SLC19A3, hepatocytes): −0.67 | RNA-seq results: SLC22A1 (gene SLC22A1, hepatocytes): −0.34 | RNA-seq results: SLC22A5 (gene SLC22A5, hepatocytes): 0.26 | RNA-seq results: SLC25A1 (gene SLC25A1, hepatocytes): −0.20 | RNA-seq results: SLC25A10 (gene SLC25A10, hepatocytes): −0.01 | RNA-seq results: SLC25A12 (gene SLC25A12, hepatocytes): 0.10 | RNA-seq results: SLC25A13 (gene SLC25A13, hepatocytes): 0.11 | RNA-seq results: SLC25A15 (gene SLC25A15, hepatocytes): −0.31 | RNA-seq results: SLC25A19 (gene SLC25A19, hepatocytes): −0.01 | RNA-seq results: SLC25A20 (gene SLC25A20, hepatocytes): −0.96 | RNA-seq results: SLC25A32 (gene SLC25A32, hepatocytes): 0.18

COc1cccc2c1C(=O)c1c(O)c3c(c(O)c1C2=O)C[C@@](O)(/C(CO)=N/NC(=O)CCCCCN1C(=O)C=CC1=O)C[C@@H]3O[C@H]1C[C@H](N)[C@H](O)[C@H](C)O1 [INNO-206 (aldoxorubicin), aldoxorubicin]
Number (#) of genes having significantly changed expression: 1944 | significant modulation of expression of disease genes (RNA-seq, hepatocytes): significantly (q≤0.05) modulate expression | B2M expression, RNA-seq result (gene B2M, hepatocytes): 0.38 | B9D2 expression, RNA-seq result (gene B9D2, hepatocytes): 0.04 | BAAT expression, RNA-seq result (gene BAAT, hepatocytes): −1.32 | BBOX1 expression, RNA-seq result (gene BBOX1, hepatocytes): −1.19 | BBS10 expression, RNA-seq result (gene BBS10, hepatocytes): −0.06 | BCHE expression, RNA-seq result (gene BCHE, hepatocytes): −0.69 | BCKDHB expression, RNA-seq result (gene BCKDHB, hepatocytes): 0 | BCKDK expression, RNA-seq result (gene BCKDK, hepatocytes): −0.91 | BCO1 expression, RNA-seq result (gene BCO1, hepatocytes): −0.28 | BCR expression, RNA-seq result (gene BCR, hepatocytes): −0.83 | BLNK expression, RNA-seq result (gene BLNK, hepatocytes): 1.32 | BLOC1S3 expression, RNA-seq result (gene BLOC1S3, hepatocytes): −0.26 | BMPR1A expression, RNA-seq result (gene BMPR1A, hepatocytes): −0.33 | BRAF expression, RNA-seq result (gene BRAF, hepatocytes): −0.34 | BSCL2 expression, RNA-seq result (gene BSCL2, hepatocytes): 0.84 | BTD expression, RNA-seq result (gene BTD, hepatocytes): −0.48 | C4A expression, RNA-seq result (gene C4A, hepatocytes): 0.4 | C9 expression, RNA-seq result (gene C9, hepatocytes): 1.1 | C10orf10 expression, RNA-seq result (gene C10orf10, hepatocytes): 1.26 | C10orf11 expression, RNA-seq result (gene C10orf11, hepatocytes): −1.44 | C15orf41 expression, RNA-seq result (gene C15orf41, hepatocytes): −1.28 | CA2 expression, RNA-seq result (gene CA2, hepatocytes): 1.36 | CA5A expression, RNA-seq result (gene CA5A, hepatocytes): −0.64 | CA12 expression, RNA-seq result (gene CA12, hepatocytes): 0.43 | CAV1 expression, RNA-seq result (gene CAV1, hepatocytes): 0.02 | CCND1 expression, RNA-seq result (gene CCND1, hepatocytes): 0.26 | CD46 expression, RNA-seq result (gene CD46, hepatocytes): 1.34 | CD81 expression, RNA-seq result (gene CD81, hepatocytes): 0.46 | CD320 expression, RNA-seq result (gene CD320, hepatocytes): −0.9 | CDAN1 expression, RNA-seq result (gene CDAN1, hepatocytes): −0.23 | CDH1 expression, RNA-seq result (gene CDH1, hepatocytes): −0.12 | CEP19 expression, RNA-seq result (gene CEP19, hepatocytes): 0.44 | CEP83 expression, RNA-seq result (gene CEP83, hepatocytes): −1.24 | CEP164 expression, RNA-seq result (gene CEP164, hepatocytes): 1.34 | CEP290 expression, RNA-seq result (gene CEP290, hepatocytes): −1.26 | CFB expression, RNA-seq result (gene CFB, hepatocytes): 0.72 | CFHR2 expression, RNA-seq result (gene CFHR2, hepatocytes): 1.2 | CHRM3 expression, RNA-seq result (gene CHRM3, hepatocytes): −0.08 | CIDEC expression, RNA-seq result (gene CIDEC, hepatocytes): −0.39 | CLDN1 expression, RNA-seq result (gene CLDN1, hepatocytes): −0.93 | COG1 expression, RNA-seq result (gene COG1, hepatocytes): 0.38

C=CCNC1=C2C[C@@H](C)C[C@H](OC)[C@H](O)[C@@H](C)/C=C(\C)[C@H](OC(N)=O)[C@@H](OC)/C=C\C=C(/C)C(=O)NC(=CC1=O)C2=O [Compound 17-AAG]
Number (#) of genes having significantly changed expression: 1558

From patent publication US20210254056A1, “IDENTIFICATION AND TARGETED MODULATION OF GENE SIGNALING NETWORKS” (CAMP4 THERAPEUTICS CORPORATION, priority 2017, published 2021)
